What was measured:
[1] = target: T1, Full length DGKα (D21-10BG, SignalChem) (Homo sapiens, UniProt P23743); experiment: Biochemical DGK IC50 assay (ADP-Glo, lipid micelle substrate), DGKα; conditions: 1 hour preincubation, 1 hour reaction, room temperature
T1 construct: Full length DGKα (D21-10BG, SignalChem); purchased SignalChem D21-10BG
Procedure: (§1) Enzymatic reactions of DGKζ, DGKα and DGKδ were performed using ADP-Glo assay with lipid micelle substrate. […] Full length DGKα (D21-10BG, SignalChem) and full length DGKδ (D23-10G, SignalChem) were purchased. Lipid micelle was prepared by dissolving DAG (Sigma, 317505-10 MG) and PS (Sigma, P7769-100 MG) with chloroform which was furtherly removed by rotary evaporation. The obtained residue was resuspended in buffer containing 25 mM HEPES pH 7.0, 0.5 mM EDTA and 160 mM Octyl β-D glucopyranoside by vigorous mixing and ultrasonic (IID, Scientz).
(§2) The inhibition activities testing for the compound disclosed herein were carried out at room temperature in assay buffer containing 50 mM HEPES, 10 mM MgCl2, 0.01% BSA, 0.1 mM Na3VO4, 0.005% Tween-20 and 0.01 mM CaCl2). Compounds in DMSO were dispensed into wells of a black 384 well plate (Corning 4514) using D300e digital dispenser (Tecan). […] 3 μL 2× enzyme solution was added to wells. […] After 1 hour reaction, 5 μL ADP-Glo reagent (Promga V9101) was added and incubated for 40 minutes. 10 μL Kinase Detection reagent was added and incubated for 30 minutes. Luminescence was measured on a microplate reader (PHERAstar FSX, BMG labtech). The IC50S are calculated based on inhibition of enzyme activity in the presence of increasing concentrations of compounds.

[2] = target: T2, Full length DGKζ (in-house protein M1-V929) (Homo sapiens, UniProt Q13574); experiment: Biochemical DGK IC50 assay (ADP-Glo, lipid micelle substrate), DGKζ; conditions: 1 hour preincubation, 1 hour reaction, room temperature
T2 construct: His (N); TEV site (N); made in house; host or cells: Sf9 insect cells (Bac-to-Bac baculovirus)
Procedure: as §1, §2
Human His-TEV-DGK-zeta-pFastBac1 and human baculovirus samples was generated using the Bac- to -Bac baculovirus expression system (Invitrogen) according to the manufacturer's protocol. The DNA used for expression of DGK-zeta, have SEQ ID Nos: 1. Baculovirus amplification was achieved using infected SF9 cells at 1:2000 virus/cells ratios, and grown for 96 hours at 27° C. post-transfected.
The expression scaled up for each protein was carried out in the […] from CORNING. 4 L of 3×10^6 cells/mL Sf9 cells (Expression System, Invitrogen) grown in SF900™ II SFM insect medium (Expression System) was infected with virus stock at 1:200 virus/cells ratio, and grown for 48 hours at 27° C. post-transfection. The infected cell culture was harvested by centrifugation at 6000 rpm for 15 min 4° C. in a SORVALL LYNX6000 centrifuge. The cell pellets were stored at −80° C.
Full length human DGKζ produced as described above, was purified from Sf9 baculovirus-infected insect cell paste. The cells were lysed using sonication method, and the lysates were clarified by centrifugation.

T1 sequence (P23743 whole entry): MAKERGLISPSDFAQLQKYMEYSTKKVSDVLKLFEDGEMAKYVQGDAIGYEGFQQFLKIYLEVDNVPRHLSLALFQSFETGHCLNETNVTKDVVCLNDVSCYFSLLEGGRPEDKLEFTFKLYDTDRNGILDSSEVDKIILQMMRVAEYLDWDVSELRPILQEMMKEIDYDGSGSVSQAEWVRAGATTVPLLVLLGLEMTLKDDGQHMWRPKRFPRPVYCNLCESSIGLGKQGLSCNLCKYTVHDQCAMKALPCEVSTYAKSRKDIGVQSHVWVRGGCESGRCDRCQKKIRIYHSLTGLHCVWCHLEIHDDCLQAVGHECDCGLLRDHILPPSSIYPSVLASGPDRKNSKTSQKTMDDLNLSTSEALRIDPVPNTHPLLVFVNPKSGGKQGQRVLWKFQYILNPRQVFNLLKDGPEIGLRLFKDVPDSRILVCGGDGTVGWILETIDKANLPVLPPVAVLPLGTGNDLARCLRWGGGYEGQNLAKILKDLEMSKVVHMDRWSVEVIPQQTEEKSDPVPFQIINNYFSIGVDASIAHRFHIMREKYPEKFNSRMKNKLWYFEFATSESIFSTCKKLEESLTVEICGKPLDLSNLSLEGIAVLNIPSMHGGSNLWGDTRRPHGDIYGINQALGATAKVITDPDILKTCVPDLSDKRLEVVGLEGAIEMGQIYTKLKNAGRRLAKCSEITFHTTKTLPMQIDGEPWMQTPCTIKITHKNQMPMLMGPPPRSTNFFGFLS
T2 sequence (Q13574 1-929 isoform Q13574-4): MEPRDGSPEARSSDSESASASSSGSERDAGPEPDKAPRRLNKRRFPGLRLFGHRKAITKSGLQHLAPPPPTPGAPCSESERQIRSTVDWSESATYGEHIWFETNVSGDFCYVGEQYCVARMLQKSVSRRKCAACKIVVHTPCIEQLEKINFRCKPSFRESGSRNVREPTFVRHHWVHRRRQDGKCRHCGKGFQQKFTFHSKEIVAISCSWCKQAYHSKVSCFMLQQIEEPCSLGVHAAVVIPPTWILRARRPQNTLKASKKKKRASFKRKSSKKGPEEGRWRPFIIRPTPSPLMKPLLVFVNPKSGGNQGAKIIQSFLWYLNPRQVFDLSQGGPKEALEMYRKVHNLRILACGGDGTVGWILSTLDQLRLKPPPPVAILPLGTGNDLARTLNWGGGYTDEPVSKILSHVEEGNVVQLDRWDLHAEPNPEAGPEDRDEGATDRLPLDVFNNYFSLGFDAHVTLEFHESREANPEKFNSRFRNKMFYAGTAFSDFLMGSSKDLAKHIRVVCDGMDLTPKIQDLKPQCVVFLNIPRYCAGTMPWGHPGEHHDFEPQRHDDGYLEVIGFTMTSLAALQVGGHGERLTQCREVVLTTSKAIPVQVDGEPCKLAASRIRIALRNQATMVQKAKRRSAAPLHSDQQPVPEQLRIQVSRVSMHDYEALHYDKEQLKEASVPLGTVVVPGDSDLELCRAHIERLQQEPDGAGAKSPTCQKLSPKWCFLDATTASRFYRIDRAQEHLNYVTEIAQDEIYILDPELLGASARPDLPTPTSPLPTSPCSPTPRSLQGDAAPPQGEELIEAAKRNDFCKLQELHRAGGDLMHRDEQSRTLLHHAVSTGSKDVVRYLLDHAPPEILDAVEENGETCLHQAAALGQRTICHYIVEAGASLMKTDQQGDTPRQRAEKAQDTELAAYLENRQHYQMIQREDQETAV

SMILES | IC50 [1] [nM] | IC50 [2] [nM]
CC(c1ccc(F)cc1C(F)(F)F)N1C[C@H](C)N(c2cc(=O)n(C)c3c2nc(CC#N)n3C)C[C@H]1C (stereo partly drawn) [Compound A2, 2-(7-((2S,5R)-4-(1-(4-fluoro-2-(trifluoromethyl)phenyl)ethyl)-2,5-dimethylpiperazin-1-yl)-3,4-dimethyl-5-oxo-4,5-dihydro-3H-imidazo[4,5-b]pyridin-2-yl)acetonitrile] | > 150000 | 92
CC(c1ccc2nccnc2c1)N1C[C@H](C)N(c2cc(=O)n(C)c3c2nc(CC#N)n3C)C[C@H]1C (single isomer, unassigned) [Compound A1b] | > 10000 | 2350
Cc1cccc(C(C)N2C[C@H](C)N(c3c(F)c(=O)n(C)c4c3nc(CC#N)n4C)C[C@H]2C)c1C(F)(F)F (single isomer, unassigned) [Compound A17b] | 1580 | 409
CC(c1ccc(F)cc1C(F)F)N1C[C@H](C)N(c2nc(=O)n(C)c3c2nc(CC#N)n3C)C[C@H]1C (stereo partly drawn) [Compound A30, 2-(6-((2S,5R)-4-(1-(2-(difluoromethyl)-4-fluorophenyl)ethyl)-2,5-dimethylpiperazin-1-yl)-3,9-dimethyl-2-oxo-3,9-dihydro-2H-purin-8-yl)acetonitrile] | 44300 | 14
CC(c1ccc2c(c1)OC(F)(F)C(F)(F)O2)N1C[C@H](C)N(c2nc(=O)n(C)c3c2nc(CC#N)n3C)C[C@H]1C (mixture of isomers) [Compound A79, 2-(6-((2S,5R)-2,5-dimethyl-4-(1-(2,2,3,3-tetrafluoro-2,3-dihydrobenzo[b][1,4]dioxin-6-yl)ethyl)piperazin-1-yl)-3,9-dimethyl-2-oxo-3,9-dihydro-2H-purin-8-yl)acetonitrile] | 16400 | 16
CCn1c(CC#N)nc2c(N3C[C@@H](C)N(C(C)c4ccc5c(c4)CN(C)C5=O)C[C@@H]3C)nc(=O)n(C)c21 (stereo partly drawn) [Compound A101, 2-(6-((2S,5R)-2,5-dimethyl-4-(1-(2-methyl-1-oxoisoindolin-5-yl)ethyl)piperazin-1-yl)-9-ethyl-3-methyl-2-oxo-3,9-dihydro-2H-purin-8-yl)acetonitrile] | > 150000 | 4230
CC(c1ccc2c(c1)OC(C)(C)CO2)N1C[C@H](C)N(c2nc(=O)n(C)c3c2nc(CC#N)n3C)C[C@H]1C (single isomer, unassigned) [Compound A59a] | 40300 | 238
CCn1c(CC#N)nc2c(N3C[C@@H](C)N(C(C)c4ccc5c(c4)OC(F)(F)CO5)C[C@@H]3C)nc(=O)n(C)c21 (mixture of isomers) [Compound A80, 2-(6-((2S,5R)-4-(1-(3,3-difluoro-2,3-dihydrobenzo[b][1,4]dioxin-6-yl)ethyl)-2,5-dimethylpiperazin-1-yl)-9-ethyl-3-methyl-2-oxo-3,9-dihydro-2H-purin-8-yl)acetonitrile] | 95000 | 31
CCn1c(CC#N)nc2c(N3C[C@@H](C)N(C(C)c4cc5c(cc4F)OC(C)(C)CO5)C[C@@H]3C)nc(=O)n(C)c21 (single isomer, unassigned) [Compound A156a] | 68600 | 496
CC[C@H]1CN(C(C)c2ccc(C(F)(F)F)cc2)[C@H](CC)CN1c1nc(=O)n(C)c2c1nc(CC#N)n2C (single isomer, unassigned) [Compound A149a] | 1620 | 37
CCn1c(CC#N)nc2c(N3C[C@@H](C)N(C(C)c4ccnc5c4OCCC5(F)F)C[C@@H]3C)nc(=O)n(C)c21 (single isomer, unassigned) [Compound A103a] | > 150000 | 524
COC[C@H]1CN(C(C)c2ccc3ncc(C)nc3c2)[C@H](C)CN1c1nc(=O)n(C)c2c1nc(CC#N)n2C (single isomer, unassigned) [Compound A13a] | > 150000 | 5060
CCn1c(CC#N)nc2c(N3C[C@@H](C)N(C(C)c4ccc5c(c4)OC(C)(C)C5=O)C[C@@H]3C)nc(=O)n(C)c21 (stereo partly drawn) [Compound A179, 2-(6-((2S,5R)-4-(1-(2,2-dimethyl-3-oxo-2,3-dihydrobenzofuran-6-yl)ethyl)-2,5-dimethylpiperazin-1-yl)-9-ethyl-3-methyl-2-oxo-3,9-dihydro-2H-purin-8-yl)acetonitrile] | 69000 | 6
CCn1c(CC#N)nc2c(N3C[C@@H](C)N(C(C)c4ccc5c(c4)OC(C)(C)CC5=O)C[C@@H]3C)nc(=O)n(C)c21 (stereo partly drawn) [Compound A81, 2-(6-((2S,5R)-4-(1-(2,2-dimethyl-4-oxochroman-7-yl)ethyl)-2,5-dimethylpiperazin-1-yl)-9-ethyl-3-methyl-2-oxo-3,9-dihydro-2H-purin-8-yl)acetonitrile] | > 150000 | 7
CCn1c(CC#N)nc2c(N3C[C@@H](C)N(C(C)c4ccc5c(c4)C(=O)N(C)C5=O)C[C@@H]3C)nc(=O)n(C)c21 (stereo partly drawn) [Compound A83, 2-(6-((2S,5R)-2,5-dimethyl-4-(1-(2-methyl-1,3-dioxoisoindolin-5-yl)ethyl)piperazin-1-yl)-9-ethyl-3-methyl-2-oxo-3,9-dihydro-2H-purin-8-yl)acetonitrile] | > 150000 | 40
CCn1c(CC#N)nc2c(N3C[C@@H](C)N(C(C)c4ccc5c(c4)OC(F)(F)O5)C[C@@H]3C)nc(=O)n(C)c21 (single isomer, unassigned) [Compound A99b] | 46500 | 536
CCn1c(=O)nc(N2C[C@@H](C)N(C(C)c3ccc4c(c3)OC(C)(C)CO4)C[C@@H]2C)c2nc(CC#N)n(C)c21 (single isomer, unassigned) [Compound A61b] | 37900 | 420
CCn1c(CC#N)nc2c(N3C[C@@H](C)N(C(C)c4ccc5c(c4)OC(C)(C)O5)C[C@@H]3C)nc(=O)n(C)c21 (mixture of isomers) [Compound A85, 2-(6-((2S,5R)-4-(1-(2,2-dimethylbenzo[d][1,3]dioxol-5-yl)ethyl)-2,5-dimethylpiperazin-1-yl)-9-ethyl-3-methyl-2-oxo-3,9-dihydro-2H-purin-8-yl)acetonitrile] | 103000 | 25
CC(c1cccc(C(F)(F)F)c1)N1C[C@H](C)N(c2nc(=O)n(C)c3c2nc(CC#N)n3C)C[C@H]1C (stereo partly drawn) [Compound A41, 2-(6-((2S,5R)-2,5-dimethyl-4-(1-(3-(trifluoromethyl)phenyl)ethyl)piperazin-1-yl)-3,9-dimethyl-2-oxo-3,9-dihydro-2H-purin-8-yl)acetonitrile] | 9700 | 16
CCn1c(CC#N)nc2c(N3C[C@@H](C)N(C(C)c4ccc5c(c4F)OC(C)(C)O5)C[C@@H]3C)c(F)c(=O)n(C)c21 (mixture of isomers) [Compound A190, 2-(3-ethyl-6-fluoro-7-((2S,5R)-4-(1-(4-fluoro-2,2-dimethylbenzo[d][1,3]dioxol-5-yl)ethyl)-2,5-dimethylpiperazin-1-yl)-4-methyl-5-oxo-4,5-dihydro-3H-imidazo[4,5-b]pyridin-2-yl)acetonitrile] | 106000 | 13
CCn1c(CC#N)nc2c(N3C[C@@H](C)N(C(C)c4ccc5c(n4)OC(C)CO5)C[C@@H]3C)nc(=O)n(C)c21 (stereo partly drawn) [Compound A89, 2-(6-((2S,5R)-2,5-dimethyl-4-(1-(3-methyl-2,3-dihydro-[1,4]dioxino[2,3-b]pyridin-6-yl)ethyl)piperazin-1-yl)-9-ethyl-3-methyl-2-oxo-3,9-dihydro-2H-purin-8-yl)acetonitrile] | > 150000 | 334
